Reference: PubChem BioAssay (NCI)
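All cell lines were grown in 96-well plates and treated with compound for 48 hours. Abbreviation: GI50, concentration required for 50% inhibition of growth. TGI: total growth inhibition.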

Assays:
Assay in all cases: NCI anticancer screen, dose series, 48 h
[1] = system: MCF7 breast
[2] = system: A498 renal
[3] = system: SN12C renal
[4] = system: SK-MEL-2 melanoma
[5] = system: EKVX NSCLC
[6] = system: CCRF-CEM leukemia
[7] = system: HT29 colon
[8] = system: NCI-H23 lung
[9] = system: SF-295 CNS
[10] = system: OVCAR-4 ovarian
[11] = system: HCT-116 colon
[12] = system: UO-31 renal
[13] = system: SK-MEL-28 melanoma
[14] = system: MALME-3M melanoma
[15] = system: IGROV1 ovarian
[16] = system: A549 NSCLC
[17] = system: MDA-MB-435
[18] = system: T-47D breast
[19] = system: SNB-75 CNS
[20] = system: MDA-MB-468 breast
[21] = system: MDA-MB-231 breast
[22] = system: SNB-19 CNS
[23] = system: HCT-15 colon
[24] = system: NCI-H522 lung
[25] = system: OVCAR-8 ovarian
[26] = system: U251 CNS
[27] = system: OVCAR-5 ovarian
[28] = system: UACC-257 melanoma
[29] = system: KM12 colon

With CC(C)c1sc(NC(=O)c2cc(NC(=O)c3cc(NC(=O)c4cscn4)cn3C)cn2C)nc1C(=O)NCCCN(C)C the GI50 [1] was 3.58 µM, the TGI [1] was 10.4 µM and the GI50 [2] was > 28.3 µM. The TGI [2] was > 28.3 µM, the GI50 [3] was 5.89 µM and the TGI [3] was > 28.3 µM. For the same compound, the GI50 [4] was 3.75 µM, the TGI [4] was 7.88 µM and the GI50 [5] was 5.84 µM. The TGI [5] was > 28.3 µM, the GI50 [6] was 2.14 µM and the TGI [6] was > 28.3 µM. For the same compound, the GI50 [7] was 5.35 µM, the TGI [7] was 10.9 µM and the GI50 [8] was 4.51 µM. For the same compound, the TGI [8] was 10.4 µM, the GI50 [9] was 9.83 µM and the TGI [9] was > 28.3 µM. The GI50 [10] was 5.34 µM, the TGI [10] was > 28.3 µM and the GI50 [11] was 2.29 µM. The TGI [11] was 8.44 µM, the GI50 [12] was > 28.3 µM and the TGI [12] was > 28.3 µM. The GI50 [13] was 3.17 µM, the TGI [13] was 11.9 µM and the GI50 [14] was 3.78 µM. The TGI [14] was 8.26 µM, the GI50 [15] was 4.48 µM and the TGI [15] was 12.3 µM. For the same compound, the GI50 [16] was 9.72 µM, the TGI [16] was > 28.3 µM and the GI50 [17] was 3.86 µM. It also gave a TGI [17] of 19.8 µM, a GI50 [18] of 1.07 µM and a TGI [18] of 12.5 µM. It also gave a GI50 [19] of 0.829 µM, a TGI [19] of 11.7 µM and a GI50 [20] of 1.03 µM. It also gave a TGI [20] of 4.68 µM, a GI50 [21] of 5.63 µM and a TGI [21] of 21.8 µM. The GI50 [22] was 0.838 µM, the TGI [22] was > 28.3 µM and the GI50 [23] was > 28.3 µM. For the same compound, the TGI [23] was > 28.3 µM, the GI50 [24] was 1.08 µM and the TGI [24] was 5.58 µM. It also gave a GI50 [25] of 7.86 µM, a TGI [25] of 26 µM and a GI50 [26] of 1.14 µM. The TGI [26] was > 28.3 µM, the GI50 [27] was 6.29 µM and the TGI [27] was 21 µM. For the same compound, the GI50 [28] was 5.78 µM, the TGI [28] was 16.8 µM and the GI50 [29] was 11.3 µM. For the same compound, the TGI [29] was > 28.3 µM.
